Results on 58 compounds are retold here after US9067949B2, “Benzofuro[3,2-c] pyridines and related analogs as serotonin sub-type 6 (5-HT6) modulators for the treatment of obesity, metabolic syndrome, cognition and schizophrenia” (Albany Molecular Research, Inc., priority 2011, dated 2015).

The target of this experiment is human 5-HT6 receptor (Homo sapiens (Human), UniProt P50406). Nature of the experiment: 5-HT6 radioligand binding assay (SPA format, [N-methyl-3H]-LSD). Conditions: human 5-HT6 receptor membranes, 10 nM [N-methyl-3H]-LSD, Ki by Cheng-Prusoff, read-out: human 5HT6 Ki. As to the method:
The relative affinities of the various compounds for the 5-HT6 receptor were measured in a radioligand binding assay, using a scintillation proximity assay (SPA) format.
For binding analysis vs. the human receptor, samples were incubated in 50 mM Tris-HCl, pH 7.5, 5 mM MgCl2, 1 mM EDTA (4% DMSO final) with 10 nM [N-methyl-^3H]-LSD (Perkin Elmer), 2.5 ng of human 5-HT6 receptor membranes (Millipore) and 50 μg SPA beads (PVT-PEI-WGA, GE Healthcare) per well in a final volume of 0.2 mL. […] Binding reactions were performed in PicoPlate96 microtiter plates (Perkin Elmer) by consecutively adding 50 μL of each competing compound or buffer, SPA beads, radioligand and 5-HT6 receptor membranes. After an overnight incubation at room temperature on a Nutator mixer, plates were centrifuged for 15 min at 1,500 rpm, followed by incubation in the dark for 10 min. […] Total binding control contained compound dilution buffer only; nonspecific binding is determined in the presence of 100 μM 5-hydroxytryptamine. Specific binding was determined by subtracting nonspecific binding from total binding.
All experiments were performed in duplicate using ten concentrations of competing ligand, with clozapine included as a control in every run. IC50 values were determined from specific binding data using XLfit4.1 curve fitting software from IDBS Ltd. The inhibition constant (Ki) was calculated using the Cheng-Prusoff equation: (Ki=IC50/(1+(L/KD)), where L=concentration of radioligand in the assay, and KD=affinity of the radioligand for the receptor.

Molecules are shown by their SMILES. Structures can show the parent of a compound that is named as a salt. Where two headings read alike, the source gives them in different places.

By Ki is commonly meant a dissociation constant, usually derived from enzyme kinetics or from competition with a known ligand.

Chain of human 5-HT6 receptor (P50406 whole entry): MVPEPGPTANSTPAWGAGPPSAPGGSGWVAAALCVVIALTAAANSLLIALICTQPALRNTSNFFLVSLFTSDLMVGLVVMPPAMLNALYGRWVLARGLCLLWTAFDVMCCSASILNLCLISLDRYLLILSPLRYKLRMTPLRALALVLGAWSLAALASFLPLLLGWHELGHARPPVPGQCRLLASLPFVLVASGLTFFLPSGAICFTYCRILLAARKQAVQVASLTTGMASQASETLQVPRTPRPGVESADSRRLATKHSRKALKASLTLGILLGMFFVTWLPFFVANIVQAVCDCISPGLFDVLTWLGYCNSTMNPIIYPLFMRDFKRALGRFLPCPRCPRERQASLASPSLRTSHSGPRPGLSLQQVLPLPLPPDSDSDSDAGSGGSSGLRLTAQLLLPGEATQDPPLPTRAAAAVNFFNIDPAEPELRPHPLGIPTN

As for `Clc1cc(Cc2ccccc2)cc2c3c(oc12)CCNC3` [Example 236], the Ki stood at 24 nM. As to `CNC(=O)c1cc(S(=O)(=O)c2ccccc2)cc2c3c(oc12)CCNC3` [Example 78, N-methyl-8-(phenylsulfonyl)-1,2,3,4-tetrahydrobenzofuro[3,2-c]pyridine-6-carboxamide hydrochloride], the Ki worked out at 607 nM. In the case of `CC(C)(O)c1cccc(S(=O)(=O)c2cc(Cl)c3oc4c(c3c2)CNCC4)c1` [Example 107], the Ki stood at 0.79 nM. For the compound `O=S(=O)(c1ccccc1)c1cc(Cn2ccnc2)c2oc3c(c2c1)CNCC3` [Example 229], the Ki came to 64 nM. With `CCOc1cc(S(=O)(=O)c2ccccc2)cc2c3c(oc12)CCNC3` [Example 215], the Ki was determined as 0.11 nM.

Regarding `O=S(=O)(c1ccccc1)c1cc(-n2cccn2)c2oc3c(c2c1)CNCC3` [Example 76, 8-(phenylsulfonyl)-6-(1H-pyrazol-1-yl)-1,2,3,4-tetrahydrobenzofuro[3,2-c]pyridine hydrochloride], the Ki turned out to be 9.3 nM. Same read-out and setting: the result for `COc1cc([S+]([O-])c2ccccc2)cc2c3c(oc12)CCNC3` (stereo not shown) [Example 234] reads 7.4 nM. On to `O=S(=O)(c1cc(Cl)c2oc3c(c2c1)CNCC3)c1ccccc1Cl` [Example 100], for which the Ki is 0.77 nM.

As to `COc1cc(S(=O)(=O)c2cccc(OC(F)F)c2)cc2c3c(oc12)CCNC3` [Example 160], the Ki stood at 0.11 nM. On to `COc1cc(S(=O)(=O)c2cccc([C@@H](C)O)c2)cc2c3c(oc12)CCNC3` [Example 174], for which the Ki was found to be 0.69 nM. For `O=S(=O)(c1cc(Cl)c2oc3c(c2c1)CNCC3)c1ccccc1OC(F)(F)F` [Example 102], the Ki was determined as 3.3 nM. On the same count and under the same terms, the figure for `COc1cc(S(=O)(=O)c2ccc3[nH]ccc3c2)cc2c3c(oc12)CCNC3` [Example 70, 8-(1H-indol-5-ylsulfonyl)-6-methoxy-1,2,3,4-tetrahydrobenzofuro[3,2-c]pyridine hydrochloride] is 0.083 nM; for `O=S(=O)(c1ccccc1)c1cc(Cl)c2oc3c(c2c1)CCNCC3` [Example 90, 7-chloro-9-(phenylsulfonyl)-2,3,4,5-tetrahydro-1H-benzofuro[2,3-d]azepine hydrochloride] it is 0.25 nM; for `O=S(=O)(c1cccc(C(F)(F)F)c1)c1cc(F)c2oc3c(c2c1)CNCC3` [Example 206] it is 5.9 nM.

With `O=S(=O)(c1ccccc1)c1cc(-c2cc[nH]n2)c2oc3c(c2c1)CNCC3` [Example 224], the inhibitory constant (Ki) turned out to be 4.5 nM. Take `O=S(=O)(c1ccc(C2CCOC2)cc1)c1cc(Cl)c2oc3c(c2c1)CNCC3` (stereo not shown) [Example 154]: the Ki was found to be 5.6 nM.

For `N#Cc1cc(S(=O)(=O)c2cccc(F)c2)cc2c3c(oc12)CCNC3` [Example 73, 8-(3-fluorophenylsulfonyl)-1,2,3,4-tetrahydrobenzofuro[3,2-c]pyridine-6-carbonitrile hydrochloride], the Ki was determined as 4.3 nM. With `COc1cc(S(=O)(=O)c2ccc([C@@H](C)O)cc2)cc2c3c(oc12)CCNC3` [Example 172], the Ki is 1.9 nM. Turning to `COc1cc(Sc2ccccc2)cc2c3c(oc12)CCNC3` [Example 230], the Ki amounted to 1.9 nM.

As for `COc1cc(S(=O)(=O)c2csc3ccccc23)cc2c3c(oc12)CCNC3` [Example 185], the Ki worked out at 0.1 nM. With `Cc1cc(S(=O)(=O)c2cc(Cl)cc(Cl)c2)cc2c3c(oc12)CCNC3` [Example 198], the Ki is 1.2 nM. On to `O=S(=O)(c1cc(Cl)c2oc3c(c2c1)CNCC3)c1ccccc1CO` [Example 122], for which the Ki stood at 5.4 nM. On the same count and under the same terms, the result for `COc1cc(S(=O)(=O)c2ccc(Cl)cc2)cc2c3c(oc12)CCNC3` [Example 189] reads 0.28 nM. With `COc1cc(S(=O)(=O)c2ccc3sccc3c2)cc2c3c(oc12)CCNC3` [Example 184], the Ki was 0.16 nM. Still for that read-out and setting: the figure for `COc1cc(S(=O)(=O)c2cccc(Cl)c2)cc2c3c(oc12)CCNC3` [Example 190] is 0.05 nM.

Turning to `CC1Cc2oc3c(Cl)cc(S(=O)(=O)c4ccccc4)cc3c2CN1` (racemic) [Example 81b, 6-chloro-3-methyl-8-(phenylsulfonyl)-1,2,3,4-tetrahydrobenzofuro[3,2-c]pyridine hydrochloride], for the setting “hydrochloride”, the Ki amounted to 19 nM.

On to `COc1cc(S(=O)(=O)c2ccccc2F)cc2c3c(oc12)CCNC3` [Example 163], for which the Ki amounted to 0.19 nM.

On to `CC1NCCc2oc3c(Cl)cc(S(=O)(=O)c4ccccc4)cc3c21` (single isomer, unassigned; (-)) [Example 82b, (−) 6-chloro-1-methyl-8-(phenylsulfonyl)-1,2,3,4-tetrahydrobenzofuro[3,2-c]pyridine hydrochloride], for which the Ki (hydrochloride) was determined as 0.15 nM. Take `COc1cc([S+]([O-])c2ccccc2)cc2c3c(oc12)CCNC3` (stereo not shown) [Example 235]: the Ki was found to be 1.1 nM. Turning to `O=S(=O)(c1cc(Cl)c2oc3c(c2c1)CNCC3)c1ccccc1C(F)(F)F` [Example 153], the Ki was 6.1 nM. As for `COc1cc(S(=O)(=O)c2cccc([C@H](C)O)c2)cc2c3c(oc12)CCNC3` [Example 175], the Ki was determined as 1.2 nM. As for `[O-][S+](c1ccccc1)c1cc(Cl)c2oc3c(c2c1)CNCC3` (stereo not shown) [Example 231], the Ki was found to be 3.1 nM. With `C[C@@H](O)c1ccc(S(=O)(=O)c2cc(Cl)c3oc4c(c3c2)CNCC4)cc1` [Example 141], the Ki is 3.1 nM.

For the compound `O=S(=O)(c1ccc2sccc2c1)c1cc(Cl)c2oc3c(c2c1)CNCC3` [Example 134], the Ki was determined as 0.55 nM. Take `O=S(=O)(c1ccccc1)c1cc(-c2cn[nH]c2)c2oc3c(c2c1)CNCC3` [Example 77, 8-(phenylsulfonyl)-6-(1H-pyrazol-4-yl)-1,2,3,4-tetrahydrobenzofuro[3,2-c]pyridine hydrochloride]: the Ki stood at 28 nM. Turning to `O=S(=O)(c1ccccc1)c1cc(Cl)c2oc3c(c2c1)CNC(CO)C3` (stereo not shown) [Example 86, (6-chloro-8-(phenylsulfonyl)-1,2,3,4-tetrahydrobenzofuro[3,2-c]pyridin-3-yl)methanol hydrochloride], the Ki amounted to 522 nM.

Turning to `CC(C)(O)c1cc(S(=O)(=O)c2ccccc2)cc2c3c(oc12)CCNC3` [Example 220], the Ki came to 55 nM. On the same count and under the same terms, the result for `O=S(=O)(c1ccc(F)c(F)c1)c1cc(Cl)c2oc3c(c2c1)CNCC3` [Example 127] reads 4 nM; that for `O=S(=O)(c1ccccc1)c1cc(N2CCOCC2)c2oc3c(c2c1)CNCC3` [Example 228], 47 nM; that for `O=S(=O)(c1ccc2c(c1)COC2)c1cc(Cl)c2oc3c(c2c1)CNCC3` [Example 156], 7.6 nM. Take `Cc1cc(S(=O)(=O)c2cccc(Cl)c2)cc2c3c(oc12)CCNC3` [Example 195]: the Ki is 0.28 nM.

In the case of `Cc1cc(S(=O)(=O)c2cccc(C(F)(F)F)c2)cc2c3c(oc12)CCNC3` [Example 201], the inhibitory constant (Ki) was 0.22 nM.

Turning to `Cn1cc(-c2cc(S(=O)(=O)c3ccccc3)cc3c4c(oc23)CCNC4)cn1` [Example 225], the Ki is 11 nM.

As to `COc1cc(S(=O)(=O)c2ccsc2)cc2c3c(oc12)CCNC3` [Example 187], the Ki worked out at 0.27 nM. Take `[O-][S+](c1ccccc1)c1cc(Cl)c2oc3c(c2c1)CNCC3` (stereo not shown) [Example 232]: the Ki is 29 nM. As to `O=S(=O)(c1ccc(F)cc1)c1cc(F)c2oc3c(c2c1)CNCC3` [Example 207], the Ki was 44 nM. In the case of `C=C(C)c1cccc(S(=O)(=O)c2cc(Cl)c3oc4c(c3c2)CNCC4)c1` [Example 157], the Ki was 0.66 nM. `CC1NCCc2oc3c(Cl)cc(S(=O)(=O)c4ccccc4)cc3c21` (racemic) [Example 81a, 6-chloro-1-methyl-8-(phenylsulfonyl)-1,2,3,4-tetrahydrobenzofuro[3,2-c]pyridine hydrochloride]: the Ki (hydrochloride) worked out at 0.35 nM. In the case of `Cc1cc(S(=O)(=O)c2ccc(Cl)cc2)cc2c3c(oc12)CCNC3` [Example 196], the Ki was 1.1 nM.

In the case of `Cc1cc(S(=O)(=O)c2ccc3sccc3c2)cc2c3c(oc12)CCNC3` [Example 204], the Ki was 0.23 nM. As for `CN(C)CC(=O)N1CCc2oc3c(Cl)cc(S(=O)(=O)c4ccccc4)cc3c2C1` [Example 145], the Ki came out at 66 nM. Consider `O=S(=O)(c1ccccc1)c1cc(C(F)(F)F)c2oc3c(c2c1)CNCC3` [Example 205], for which the inhibition constant (Ki) turned out to be 2.1 nM. Consider `O=S(=O)(c1cc(F)cc(Cl)c1)c1cc(Cl)c2oc3c(c2c1)CNCC3` [Example 125], for which the Ki is 2.3 nM. On to `COc1cc(S(=O)(=O)c2cc(Cl)cc(Cl)c2)cc2c3c(oc12)CCNC3` [Example 191], for which the Ki was 0.23 nM. The same measure, in the same setting: the figure for `N#Cc1cc(S(=O)(=O)c2cc(F)cc(F)c2)cc2c3c(oc12)CCNC3` [Example 208] is 50 nM; for `CC(O)c1ccccc1S(=O)(=O)c1cc(Cl)c2oc3c(c2c1)CNCC3` (stereo not shown) [Example 135] it is 20 nM; for `COc1cc(S(=O)(=O)c2ccccc2CO)cc2c3c(oc12)CCNC3` [Example 159] it is 1.5 nM.

In the case of `O=S(=O)(c1ccc(F)cc1)c1cc(Cl)c2oc3c(c2c1)CNCC3` [Example 128], the Ki amounted to 3 nM.
